Columns and labels:
wheat (winter wheat) = experiment: Test C postemergence; type: in vivo, Triticum aestivum
Excerpt: (§1) Seeds of plant species selected from blackgrass (Alopecurus myosuroides), ryegrass, Italian (Italian ryegrass, Lolium multiflorum), wheat (winter wheat, Triticum aestivum), galium (catchweed bedstraw, Galium aparine), corn (Zea mays), crabgrass, large (large crabgrass, Digitaria sanguinalis), foxtail, giant, (giant foxtail, Setaria faberii), johnsongrass (Sorghum halepense), lambsquarters (Chenopodium album), morningglory (Ipomoea coccinea), nutsedge, yellow (yellow nutsedge, Cyperus esculentus), pigweed (Amaranthus retroflexus), ragweed (common ragweed, Ambrosia elatior), soybean (Glycine max), barnyardgrass (Echinochloa crus-galli), oilseed rape (Brassica napus), waterhemp (common waterhemp, Amaranthus rudis), and velvetleaf (Abutilon theophrasti) were planted into a blend of loam soil and sand and treated preemergence with test chemicals formulated in a non-phytotoxic solvent mixture which included a surfactant. At the same time, plants selected from these crop and weed species and also chickweed (common chickweed, Stellaria media), oat, wild (wild oat, Avena fatua), and kochia (Kochia scoparia), were planted in pots containing Sunshine Redi-Earth® planting medium comprising spaghnum peat moss, vermiculite, starter nutrients and dolomitic limestone and treated with postemergence applications of test chemicals formulated in the same manner. Plants ranged in height from 2 to 18 cm (1- to 4-leaf stage) for postemergence treatments. […] A dash (-) response means no test result.

ducksalad = experiment: Test B flooded paddy test; type: in vivo, Heteranthera limosa; conditions: Heteranthera limosa, 360 h, 125 g ai/ha, applied to paddy water at 2-leaf stage, visual rating after 13 to 15 d, scale 0 (no effect) to 100 (complete control), read-out: Plant response rating, Ducksalad, Flood
In short: (§2)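 Pots were flooded to 3 cm above the soil at treatment, and compounds were applied directly into the paddy water. That depth was held throughout. After 13 to 15 d in a greenhouse, plants were rated visually against untreated controls.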

barnyardgrass = experiment: Test A postemergence; type: in vivo, Echinochloa crus-galli; conditions: Echinochloa crus-galli, post-emergence, 240 h, 0 to 100 scale (0 no effect, 100 complete control), approx. 10 d, read-out: Plant response rating, Barnyardgrass; for pest or weed control at 125 g/ha: 125 g ai/ha; for pest or weed control at 500 g/ha: 500 g ai/ha
In short: (§3)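 Loam/sand soil mix; compound in non-phytotoxic solvent + surfactant. Pre: directed soil spray right after planting seed. Post: potted plants 2–10 cm, 1–2 leaf stage, sprayed with same formulation.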

oat, wild = experiment: Test C postemergence; type: in vivo, Avena fatua
Excerpt: as §1

corn = experiment: Test A postemergence; type: in vivo, Zea mays; conditions: Zea mays, post-emergence, 240 h, 0 to 100 scale (0 no effect, 100 complete control), approx. 10 d; for Corn plant response rating (crop injury, 0 = no effect, 100 = complete kill) at 125 g/ha: 125 g ai/ha; for Corn plant response rating (crop injury, 0 = no effect, 100 = complete kill) at 500 g/ha: 500 g ai/ha
In short: as §3

nutsedge, yellow = experiment: Test C postemergence; type: in vivo, Cyperus esculentus
Excerpt: as §1

sedge, umbrella = experiment: Test B flooded paddy test; type: in vivo, Cyperus difformis; conditions: Cyperus difformis, 360 h, 125 g ai/ha, applied to paddy water at 2-leaf stage, visual rating after 13 to 15 d, scale 0 (no effect) to 100 (complete control), read-out: Plant response rating, Sedge, Umbrella, Flood
In short: as §2

pigweed = experiment: Test A preemergence; type: in vivo, Amaranthus retroflexus; conditions: Amaranthus retroflexus, pre-emergence, 240 h, 0 to 100 scale (0 no effect, 100 complete control), read-out: Plant response rating, Pigweed; for pest or weed control at 125 g/ha: 125 g ai/ha; for pest or weed control at 500 g/ha: 500 g ai/ha, approx. 10 d
In short: as §3

morningglory = experiment: Test C postemergence; type: in vivo, Ipomoea coccinea
Excerpt: as §1

ryegrass, Italian = experiment: Test C postemergence; type: in vivo, Lolium multiflorum
Excerpt: as §1

chickweed = experiment: Test C postemergence; type: in vivo, Stellaria media
Excerpt: as §1

foxtail, giant = experiment: Test A preemergence; type: in vivo, Setaria faberii; conditions: Setaria faberi, pre-emergence, 240 h, 0 to 100 scale (0 no effect, 100 complete control), read-out: Plant response rating, Foxtail, Giant; for pest or weed control at 125 g/ha: 125 g ai/ha; for pest or weed control at 500 g/ha: 500 g ai/ha, approx. 10 d
In short: as §3

rice = experiment: Test B flooded paddy test; type: in vivo, Oryza sativa; conditions: Oryza sativa, 360 h, 125 g ai/ha, applied to paddy water at 2-leaf stage, visual rating after 13 to 15 d, scale 0 (no effect) to 100 (complete control), read-out: Plant response rating, Rice, Flood
In short: as §2

soybean = experiment: Test C postemergence; type: in vivo, Glycine max
Excerpt: as §1

Compound | Plant response rating (scale of 0 to 100 where 0 is no effect and 100 is complete control) (wheat (winter wheat); 31 g ai/ha) | Plant response rating (scale of 0 to 100 where 0 is no effect and 100 is complete control) (wheat (winter wheat); 62 g ai/ha) | Plant response rating (scale of 0 to 100 where 0 is no effect and 100 is complete control) (wheat (winter wheat); 125 g ai/ha) | pest or weed control at 125 g/ha (ducksalad) | pest or weed control at 125 g/ha (barnyardgrass) | pest or weed control at 500 g/ha (barnyardgrass) | Plant response rating (scale of 0 to 100 where 0 is no effect and 100 is complete control) (oat, wild; 31 g ai/ha) | Plant response rating (scale of 0 to 100 where 0 is no effect and 100 is complete control) (oat, wild; 62 g ai/ha) | Plant response rating (scale of 0 to 100 where 0 is no effect and 100 is complete control) (oat, wild; 125 g ai/ha) | Corn plant response rating (crop injury, 0 = no effect, 100 = complete kill) at 125 g/ha (corn) | Corn plant response rating (crop injury, 0 = no effect, 100 = complete kill) at 500 g/ha (corn) | Plant response rating (scale of 0 to 100 where 0 is no effect and 100 is complete control) (nutsedge, yellow; 31 g ai/ha) | Plant response rating (scale of 0 to 100 where 0 is no effect and 100 is complete control) (nutsedge, yellow; 62 g ai/ha) | Plant response rating (scale of 0 to 100 where 0 is no effect and 100 is complete control) (nutsedge, yellow; 125 g ai/ha) | pest or weed control at 125 g/ha (sedge, umbrella) | pest or weed control at 125 g/ha (pigweed) | pest or weed control at 500 g/ha (pigweed) | Plant response rating (scale of 0 to 100 where 0 is no effect and 100 is complete control) (morningglory; 31 g ai/ha) | Plant response rating (scale of 0 to 100 where 0 is no effect and 100 is complete control) (morningglory; 62 g ai/ha) | Plant response rating (scale of 0 to 100 where 0 is no effect and 100 is complete control) (morningglory; 125 g ai/ha) | also measured
CCOc1nc(-c2ccc(F)cc2)nn1Cc1ccnc(C(F)(F)F)c1 [Compound 8, 4-[[5-ethoxy-3-(4-fluorophenyl)-1H-1,2,4-triazol-1-yl]methyl]-2-(trifluoromethyl)pyridine] | 30 | 35 | 30 | 85% | 100% | 100% | 45 | 50 | 35 | 50% | 90% | 5 | 10 | 10 | 90% | 100% | 100% | 85 | 98 | 80 | Plant response rating (scale of 0 to 100 where 0 is no effect and 100 is complete control) (wheat (winter wheat); 250 g ai/ha): 40; Plant response rating (scale of 0 to 100 where 0 is no effect and 100 is complete control) (oat, wild; 250 g ai/ha): 45; Plant response rating (scale of 0 to 100 where 0 is no effect and 100 is complete control) (nutsedge, yellow; 250 g ai/ha): 10; Plant response rating (scale of 0 to 100 where 0 is no effect and 100 is complete control) (morningglory; 250 g ai/ha): 100; Plant response rating (scale of 0 to 100 where 0 is no effect and 100 is complete control) (ryegrass, Italian; 31 g ai/ha): 30; Plant response rating (scale of 0 to 100 where 0 is no effect and 100 is complete control) (ryegrass, Italian; 62 g ai/ha): 35; Plant response rating (scale of 0 to 100 where 0 is no effect and 100 is complete control) (ryegrass, Italian; 125 g ai/ha): 35; Plant response rating (scale of 0 to 100 where 0 is no effect and 100 is complete control) (ryegrass, Italian; 250 g ai/ha): 50; Plant response rating (scale of 0 to 100 where 0 is no effect and 100 is complete control) (chickweed; 31 g ai/ha): 85; Plant response rating (scale of 0 to 100 where 0 is no effect and 100 is complete control) (chickweed; 62 g ai/ha): 98; Plant response rating (scale of 0 to 100 where 0 is no effect and 100 is complete control) (chickweed; 125 g ai/ha): 98; Plant response rating (scale of 0 to 100 where 0 is no effect and 100 is complete control) (chickweed; 250 g ai/ha): 98; pest or weed control at 125 g/ha (foxtail, giant): 100%; pest or weed control at 500 g/ha (foxtail, giant): 100%; plant injury at 125 g/ha (rice): 50%; Plant response rating (scale of 0 to 100 where 0 is no effect and 100 is complete control) (soybean; 31 g ai/ha): 65; Plant response rating (scale of 0 to 100 where 0 is no effect and 100 is complete control) (soybean; 62 g ai/ha): 75; Plant response rating (scale of 0 to 100 where 0 is no effect and 100 is complete control) (soybean; 125 g ai/ha): 95; Plant response rating (scale of 0 to 100 where 0 is no effect and 100 is complete control) (soybean; 250 g ai/ha): 85
COc1nc(-c2ccc(F)cc2)nn1Cc1ccnc(C(F)(F)F)c1 [Compound 9, 4-[[3-(4-fluorophenyl)-5-methoxy-1H-1,2,4-triazol-1-yl]methyl]-2-(trifluoromethyl)pyridine] | 0 | 0 | 5 | 20% | 70% | 90% | 5 | 5 | 10 | 40% | 80% | 0 | 0 | 5 | 80% | 100% | 100% | 85 | 80 | 75 | Plant response rating (scale of 0 to 100 where 0 is no effect and 100 is complete control) (wheat (winter wheat); 16 g ai/ha): 0; Plant response rating (scale of 0 to 100 where 0 is no effect and 100 is complete control) (oat, wild; 16 g ai/ha): 5; Plant response rating (scale of 0 to 100 where 0 is no effect and 100 is complete control) (nutsedge, yellow; 16 g ai/ha): 0; Plant response rating (scale of 0 to 100 where 0 is no effect and 100 is complete control) (morningglory; 16 g ai/ha): 70; Plant response rating (scale of 0 to 100 where 0 is no effect and 100 is complete control) (ryegrass, Italian; 16 g ai/ha): 0; Plant response rating (scale of 0 to 100 where 0 is no effect and 100 is complete control) (ryegrass, Italian; 31 g ai/ha): 5; Plant response rating (scale of 0 to 100 where 0 is no effect and 100 is complete control) (ryegrass, Italian; 62 g ai/ha): 5; Plant response rating (scale of 0 to 100 where 0 is no effect and 100 is complete control) (ryegrass, Italian; 125 g ai/ha): 5; Plant response rating (scale of 0 to 100 where 0 is no effect and 100 is complete control) (chickweed; 16 g ai/ha): 70; Plant response rating (scale of 0 to 100 where 0 is no effect and 100 is complete control) (chickweed; 31 g ai/ha): 75; Plant response rating (scale of 0 to 100 where 0 is no effect and 100 is complete control) (chickweed; 62 g ai/ha): 75; Plant response rating (scale of 0 to 100 where 0 is no effect and 100 is complete control) (chickweed; 125 g ai/ha): 80; pest or weed control at 125 g/ha (foxtail, giant): 100%; pest or weed control at 500 g/ha (foxtail, giant): 100%; plant injury at 125 g/ha (rice): 0%; Plant response rating (scale of 0 to 100 where 0 is no effect and 100 is complete control) (soybean; 16 g ai/ha): 15; Plant response rating (scale of 0 to 100 where 0 is no effect and 100 is complete control) (soybean; 31 g ai/ha): 25; Plant response rating (scale of 0 to 100 where 0 is no effect and 100 is complete control) (soybean; 62 g ai/ha): 30; Plant response rating (scale of 0 to 100 where 0 is no effect and 100 is complete control) (soybean; 125 g ai/ha): 30

— patent publication US10681909B2, “Herbicidal triazoles” (FMC Corporation, priority 2014, dated 2020)
